Read-outs that look alike come from different tables or passages of the source. Values belong to the molecule of their own block, whether it stands above or below them.
What was measured:
H^+ /K^+ ATPase = molecular target: T1, H^+ /K^+ ATPase (Oryctolagus cuniculus, UniProt P27112); assay: Inhibition of H^+ /K^+ ATPase (rabbit gastric mucosa vesicles); type: biochemical
T1 construct: from tissue; host or cells: rabbit gastric mucosa, membrane vesicles (differential and Ficoll density gradient centrifugation)
T1 sequence (P27112 2-1035 limits assumed): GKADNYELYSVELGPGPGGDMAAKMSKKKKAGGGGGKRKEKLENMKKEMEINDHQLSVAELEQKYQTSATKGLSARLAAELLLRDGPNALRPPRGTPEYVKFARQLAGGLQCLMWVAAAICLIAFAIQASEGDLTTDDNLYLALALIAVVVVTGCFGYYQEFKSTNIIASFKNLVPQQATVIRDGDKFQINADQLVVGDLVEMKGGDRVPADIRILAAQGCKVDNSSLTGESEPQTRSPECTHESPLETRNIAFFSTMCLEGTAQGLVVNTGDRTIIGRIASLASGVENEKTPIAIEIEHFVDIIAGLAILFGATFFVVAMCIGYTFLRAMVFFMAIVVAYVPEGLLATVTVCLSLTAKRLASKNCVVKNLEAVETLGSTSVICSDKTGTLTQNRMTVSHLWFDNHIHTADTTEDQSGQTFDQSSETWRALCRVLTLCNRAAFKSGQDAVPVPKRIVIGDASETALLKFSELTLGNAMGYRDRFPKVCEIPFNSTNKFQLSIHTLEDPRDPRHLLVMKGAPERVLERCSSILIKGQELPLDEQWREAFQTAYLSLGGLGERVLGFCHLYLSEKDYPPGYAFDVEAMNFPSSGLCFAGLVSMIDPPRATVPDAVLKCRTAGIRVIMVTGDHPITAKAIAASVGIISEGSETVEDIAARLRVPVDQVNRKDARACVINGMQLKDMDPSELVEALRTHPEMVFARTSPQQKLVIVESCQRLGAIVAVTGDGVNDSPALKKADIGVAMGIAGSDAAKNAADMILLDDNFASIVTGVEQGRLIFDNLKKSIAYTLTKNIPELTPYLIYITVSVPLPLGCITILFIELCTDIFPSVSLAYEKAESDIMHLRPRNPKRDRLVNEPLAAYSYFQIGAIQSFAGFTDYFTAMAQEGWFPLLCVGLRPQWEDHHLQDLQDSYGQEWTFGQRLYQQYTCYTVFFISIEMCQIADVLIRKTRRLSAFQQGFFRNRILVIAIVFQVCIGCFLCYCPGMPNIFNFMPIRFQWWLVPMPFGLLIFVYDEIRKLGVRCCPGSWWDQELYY
T1 sequence (P18597 whole entry partner): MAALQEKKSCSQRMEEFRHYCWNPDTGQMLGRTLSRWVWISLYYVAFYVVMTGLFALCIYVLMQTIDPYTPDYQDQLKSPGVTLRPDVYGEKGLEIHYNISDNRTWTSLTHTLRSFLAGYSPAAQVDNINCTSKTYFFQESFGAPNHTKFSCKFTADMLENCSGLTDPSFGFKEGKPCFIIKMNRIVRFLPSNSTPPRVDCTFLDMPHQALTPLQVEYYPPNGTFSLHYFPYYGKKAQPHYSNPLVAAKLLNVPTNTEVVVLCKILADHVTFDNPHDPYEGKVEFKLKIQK
Experimental: 1. Inhibition of H^+ /K^+ ATPase Inhibition of H^+ /K^+ ATPase, a proton carrying enzyme, was measured by following the procedure of Saccomani et al. [Biochim. Biophy. Acta., 465, 311-330 (1977)]. Thus, a homogenate of the gastric mucose membrane of rabbit was used to prepare vesicles containing H^+ /K^+ ATPase by employing differential centrifugation and discontinuous density gradient centrifugation in Ficoll. […] Omeprazole was used as a control. A solution containing 2 mM of magnesium chloride, 40 mM of imidazole buffer (pH 7.4), 10 mM of potassium chloride and […] of ATP was added to the mixture. The resulting mixture was incubated at 37° C. for 15 minutes and the reaction was terminated by adding 1 ml of ice-cold 22% solution of trichloroacetic acid. Enzyme activity was calculated by measuring the separated inorganic phosphate by following the method of Fiske and Subbarow [J. Biol. Chem., 66, 375-440 (1925)].

gastric secretion = assay: Inhibition of gastric secretion (Shay ligation); type: in vivo, male Sprague-Dawley rats; conditions: 4 hours, pylorus-ligated rats; for Gastric juice Secretion Inhibition (% at 12.5 mg/kg): 12.5 mg/kg into duodenum; for ED50: Rattus norvegicus, into duodenum, read-out: Gastric juice Secretion Inhibition (ED50)
Experimental: 2. Inhibition of Gastric Secretion
Inhibition of gastric secretion was measured by following the procedure of Shay ligation (Gastroenterology, 1954, 26, 903). Thus, male Sprague-Dawleyrats weighing 180-200 g were starved for 24 hours and their pylorus were ligated. Then, the inventive compounds shown in Table 2 or omeprazole as a positive control was administered into duodenum. Four hours later, the stomach was removed, and the acidity and amount of gastric juice were measured. By comparing the measured values with the acidity and amount of the gastric juice of the stomach of the reference group to which no test compound was administered, the inhibition of gastric secretion was calculated.

[1] = tested on: indomethacin-induced lesions; assay: Inhibition of indomethacin-induced lesions; type: in vivo, male Sprague-Dawley rats; conditions: Rattus norvegicus; oral, before indomethacin 35 mg/kg s.c.; read-out: Anti-ulcer activity (ED50), Indomethacin
Experimental: 3) Inhibition of indomethacin-induced lesions Inhibitory activities of the inventive compounds on the indomethacin-induced lesions were measured by using male Sprague-Dawley rats. Thus, rats were starved for 48 hours and prohibited from being supplied with water for 2 hours, and 35 mg/kg of indomethacin (Sigma Co.) as a causative of gastric lesions was subcutaneously administered. Before indomethacin treatment, the inventive compounds shown in Table 3 or omeprazole as a positive control was orally administered, and the inhibitions of lesions by the action of the test compounds were observed.

ethanol-induced lesions = assay: Inhibition of ethanol-induced lesions; type: in vivo, male Sprague-Dawley rats; conditions: Rattus norvegicus; oral, 30 min before absolute ethanol (5 ml/kg); read-out: Anti-ulcer activity (ED50), Ethanol
Experimental: 1) Inhibition of ethanol-induced lesions Inhibitory activity of the inventive compound on the ethanol-induced lesions was measured by using male Sprague-Dawley rats weighing 180-200 g. Thus, rats were starved for 24 hours, and the inventive compounds shown in Table 3 or omeprazole as a positive control was orally administered. Thirty minutes later, absolute ethanol (5 ml/kg) was orally administered. 1.5 hours later, the stomach was removed, and the degree of the wound of the stomach was measured.

ICR mice = assay: Acute toxicity (oral, 14 days); type: in vivo; conditions: 6 animals
Experimental: (§1) A median lethal dose (LD50) an index of acute toxicity was measured and is Table 4

[2] = Acute toxicity (oral, 14 days); type: in vivo; conditions: mouse, in vivo, po; for mortality at 336 h: read-out: Lethality (%); for LD50 at 336 h: 14 days
Experimental: as §1

[3] = tested on: acetic acid-induced ulcer; assay: Inhibition of acetic acid-induced ulcer; type: in vivo, male Sprague-Dawley rats; conditions: oral, 10 days
Experimental: 5) Inhibition of acetic acid-induced ulcer Inhibitory activity of the inventive compound on the acetic acid-induced ulcer was evaluated by using male Sprague-Dawley rats. Thus, rats were starved for 5 hours prior to carrying out the experiment. 20 Microliter of 30% acetic acid was injected into the submucosal layer of the stomach using a microsyringe to induce a circular ulcer on the stomach. […] The percentages of the healing of the ulcer were calculated by comparing them with that of reference group.

stress-induced ulcer = assay: Inhibition of stress-induced ulcer; type: in vivo, male Sprague-Dawley rats; conditions: Rattus norvegicus; oral, water immersion stress; read-out: Anti-ulcer activity (ED50), Stress
Experimental: 4) Inhibition of stress-induced ulcer Inhibitory activity of the inventive compound on the stress-induced ulcer was evaluated by using male Spraque-Dawley rats. Thus, rats were starved for 24 hours prior to carrying out the experiment. Stress is an important factor for causing gastric ulcer, and was applied to rats by immersing them in water. Then, the inventive compounds shown in Table 3 or omeprazole as a control was orally administered, and the inhibitions of ulcer by the action of the test compounds were observed.

mepirizole-induced ulcer = assay: Inhibition of mepirizole-induced ulcer; type: in vivo, male Sprague-Dawley rats; conditions: Rattus norvegicus; oral, 30 min before mepirizole (250 mg/kg); duodenum; read-out: Anti-ulcer activity (ED50), Mepirizole
Experimental: 2) Inhibition of mepirizole-induced ulcer Inhibitory activity of the inventive compound on the mepirizole-induced ulcer was measured by using male Spraque-Dawley rats weighing 200-230 g. Thus, rats were not starved, and the inventive compounds shown in Table 3 or omeprazole as a positive control was orally administered. Thirty minutes later, mepirizole suspended in 1% CMC (250 mg/kg) was orally administered. […], the duodena were removed. The degree of the ulcer thereof was measured.

[4] = preincubation 30 min, 37° C., pH 7.4

IC50 (H^+ /K^+ ATPase; [4]): 31.6 µM
Compound: CCOC(=O)c1cnc2c(OC)nccc2c1Nc1ccc(F)cc1 [Example 11]

IC50 (H^+ /K^+ ATPase; [4]): 25.1 µM
Compound: CCCCc1ccc(Nc2c(C(=O)OCC)cnc3c(OC)nccc23)cc1 [Example 13]
Gastric juice Secretion Inhibition (% at 12.5 mg/kg) (gastric secretion): 42.1%

Compound: CCOC(=O)c1cnc2c(OC)nccc2c1N[C@@H](C)c1ccccc1 [Example 15]
ED50 [1]: 2.1 mg/kg | ED50 (gastric secretion): 30 mg/kg | ED50 (ethanol-induced lesions): 12.8 mg/kg

Compound: CCCC(=O)c1cnc2c(OC)nccc2c1N[C@H](C)c1ccccc1 [Example 21]
ED50 [1]: 2.1 mg/kg | ED50 (gastric secretion): 11.7 mg/kg | ED50 (ethanol-induced lesions): 11.2 mg/kg | No. of Death (ICR mice; female, 40 mg/kg oral): 0 | No. of Death (ICR mice; female, 200 mg/kg oral): 0 | No. of Death (ICR mice; female, 1000 mg/kg oral): 1 | No. of Death (ICR mice; female, 5000 mg/kg oral): 6 | No. of Death (ICR mice; male, 40 mg/kg oral): 0 | No. of Death (ICR mice; male, 200 mg/kg oral): 0 | No. of Death (ICR mice; male, 1000 mg/kg oral): 0 | No. of Death (ICR mice; male, 5000 mg/kg oral): 6 | mortality at 336 h ([2]; 40 mg/kg, female, 40 mg/kg oral): 0% | mortality at 336 h ([2]; 40 mg/kg, male, 40 mg/kg oral): 0% | mortality at 336 h ([2]; 200 mg/kg, female, 200 mg/kg oral): 0% | mortality at 336 h ([2]; 200 mg/kg, male, 200 mg/kg oral): 0% | mortality at 336 h ([2]; 1000 mg/kg, female, 1000 mg/kg oral): 17% | mortality at 336 h ([2]; 1000 mg/kg, male, 1000 mg/kg oral): 0% | mortality at 336 h ([2]; 5000 mg/kg, female, 5000 mg/kg oral): 100% | mortality at 336 h ([2]; 5000 mg/kg, male, 5000 mg/kg oral): 100% | LD50 at 336 h ([2]; female): 1130 mg/kg | LD50 at 336 h ([2]; male): 2340 mg/kg | Acetic acid: Percentage of healing in 30 mg/kg [3]: 22.0% | ED50 (stress-induced ulcer): 13 mg/kg | ED50 (mepirizole-induced ulcer): 64.1 mg/kg | IC50 (H^+ /K^+ ATPase; [4]): 45.7 µM

IC50 (H^+ /K^+ ATPase; [4]): 26.9 µM
Compound: CCCC(=O)c1cnc2c(OC)nccc2c1NCCCCc1ccccc1 [Example 29]

IC50 (H^+ /K^+ ATPase; [4]): 14.9 µM
Compound: CCCC(=O)c1cnc2c(OC)nccc2c1Nc1ccc2c(c1)CCC2 [Example 31]

IC50 (H^+ /K^+ ATPase; [4]): 75 µM
Compound: CCCC(=O)c1cnc2c(OC)nccc2c1NC1CCCc2ccccc21 (stereo not drawn) [Example 32]

IC50 (H^+ /K^+ ATPase; [4]): 23.4 µM
Compound: CCCC(=O)c1cnc2c(OCC)nccc2c1Nc1ccccc1SC [Example 34]
ED50 [1]: 4.9 mg/kg | ED50 (gastric secretion): 30 mg/kg | ED50 (ethanol-induced lesions): 30.6 mg/kg

IC50 (H^+ /K^+ ATPase; [4]): 20.5 µM
Compound: CCCCc1ccc(Nc2c(C(=O)CCC)cnc3c(OCC)nccc23)cc1 [Example 35]

IC50 (H^+ /K^+ ATPase; [4]): 28 µM
Compound: CCCC(=O)c1cnc2c(OCC)nccc2c1N[C@H](C)c1ccccc1 [Example 37]
ED50 (gastric secretion): 13.3 mg/kg

IC50 (H^+ /K^+ ATPase; [4]): 12.6 µM
Compound: CCCC(=O)c1cnc2c(OCC)nccc2c1NCCCCc1ccccc1 [Example 41]

IC50 (H^+ /K^+ ATPase; [4]): 14.7 µM
Compound: CCCC(=O)c1cnc2c(OCC)nccc2c1NC1CCCc2ccccc21 (stereo not drawn) [Example 42]

IC50 (H^+ /K^+ ATPase; [4]): 18.2 µM
Compound: CCCC(=O)c1cnc2c(OC(C)C)nccc2c1Nc1ccccc1C [Example 43, 3-Butyryl-8-isopropoxy-4-(2-methylphenylamino)-1,7-naphthyridine]

IC50 (H^+ /K^+ ATPase; [4]): 11.4 µM
Compound: CCCC(=O)c1cnc2c(OC(C)C)nccc2c1Nc1ccccc1SC [Example 44]

IC50 (H^+ /K^+ ATPase; [4]): 39.3 µM
Compound: CCCC(=O)c1cnc2c(OC(C)C)nccc2c1Nc1ccccc1C(F)(F)F [Example 45]

Compound: CCOC(=O)c1cnc2c(N3CCOCC3)nccc2c1Nc1ccccc1OC [Example 49]
Gastric juice Secretion Inhibition (% at 12.5 mg/kg) (gastric secretion): 35.8%

IC50 (H^+ /K^+ ATPase; [4]): 16.8 µM
Compound: CCOC(=O)c1cnc2c(N3CCOCC3)nccc2c1Nc1cccc(C(F)(F)F)c1 [Example 55]

IC50 (H^+ /K^+ ATPase; control): 57.5 µM
Compound: COc1ccc2[nH]c([S+]([O-])Cc3ncc(C)c(OC)c3C)nc2c1 (stereo not drawn) [Omeprazole, reference compound]
ED50 [1]: 1.2 mg/kg | ED50 (ethanol-induced lesions): 17.5 mg/kg | Acetic acid: Percentage of healing in 30 mg/kg [3]: 27.1% | ED50 (stress-induced ulcer): 4.4 mg/kg | ED50 (mepirizole-induced ulcer): 2.8 mg/kg
